What was measured:
[1] = Cytotoxicity against human KB403 cells after 24 hrs by MTT assay; type: functional, cell-based; conditions: KB403, 24 h
WRL68 = assay: Cytotoxicity against human WRL68 cells after 24 hrs by MTT assay; type: functional, cell-based; conditions: WRL68, 24 h
Caco-2 = assay: Cytotoxicity against human CaCO2 cells after 24 hrs by MTT assay; type: functional, cell-based; conditions: Caco-2, 24 h
HepG2 = assay: Cytotoxicity against human HEPG2 cells after 24 hrs by MTT assay; type: functional, cell-based; conditions: HepG2, 24 h
MCF7 = assay: Cytotoxicity against human MCF7 cells after 24 hrs by MTT assay; type: functional, cell-based; conditions: MCF7, 24 h
[2] = Toxicity in human erythrocytes assessed as osmotic hemolysis; type: cell-based; conditions: erythrocyte
[3] = Toxicity in human erythrocytes assessed as osmotic hemolysis at 258 uM; type: cell-based; conditions: erythrocyte

Row | Compound | IC50 [1] [µM] | IC50 (WRL68) [µM] | IC50 (Caco-2) [µM] | IC50 (HepG2) [µM] | IC50 (MCF7) [µM] | Activity [2] | Activity [3]
1 | COc1cccc(C2CC(=O)c3cc(OC)c(OC)c(OC)c32)c1 (centres undefined) | ≥ 250 | ≥ 250 | ≥ 250 | ≥ 250 | ≥ 250 | – | –
2 | COc1cc(OC)c(C2CC(=O)c3cc(OC)c(OC)c(OC)c32)c(OC)c1 (centres undefined) | 12.9 | 0.022 | 226 | 1.49 | 211 | Toxic | –
3 | COc1cc2c(cc1OC)C(c1cc(OC)c(OC)c(OC)c1)CC2=O (centres undefined) | 140 | 196 | 140 | 112 | ≥ 250 | – | –
4 | COc1cc(C2=C(O)C(=O)c3cc(OC)c(OC)c(OC)c32)cc(OC)c1OC | ≥ 250 | 124 | ≥ 250 | 74.6 | ≥ 250 | – | –
5 | COc1cc(C2C/C(=N\O)c3cc(OC)c(OC)c(OC)c32)cc(OC)c1OC (centres undefined) | 136 | 223 | 49.6 | 124 | ≥ 250 | – | –
6 | COc1cc2c(c(OC)c1OC)C(c1ccccc1)CC2=O (centres undefined) | 0.84 | ≥ 250 | ≥ 250 | 188 | ≥ 250 | Toxic | –
7 | COc1ccc(C2CC(=O)c3cc(OC)c(OC)c(OC)c32)c(OC)c1OC (centres undefined) | 1.54 | 0.023 | 206 | ≥ 250 | ≥ 250 | Toxic | –
8 | COc1cc(C2CC(=O)c3cc(OC)c(OC)c(OC)c32)cc(OC)c1OC (centres undefined) | 10.3 | 12.8 | ≥ 250 | 9 | 2.2 | – | Non-toxic
9 | COc1cc2c(c(OC)c1OC)-c1c(oc3c(OC)c(OC)c(OC)cc13)C2=O | ≥ 250 | 62.5 | 112 | ≥ 250 | 50 | – | –
10 | COc1cc(C2CC(O)c3cc(OC)c(OC)c(OC)c32)cc(OC)c1OC (centres undefined) | 192 | 192 | 6.4 | 102 | 244 | – | –
11 | COc1cc(C2CCc3cc(OC)c(OC)c(OC)c32)cc(OC)c1OC (centres undefined) | ≥ 250 | 154 | 115 | 89.7 | ≥ 250 | – | –
12 | CC(=O)O[C@H]1C(=O)[C@@]2(C)[C@H]([C@H](OC(=O)c3ccccc3)[C@]3(O)C[C@H](OC(=O)[C@H](O)[C@@H](NC(=O)c4ccccc4)c4ccccc4)C(C)=C1C3(C)C)[C@]1(OC(C)=O)CO[C@@H]1C[C@@H]2O [PACLITAXEL] | 0.001 | 0.004 | 0.008 | 0.009 | 0.006 | – | –
13 | COc1cc([C@@H]2c3cc4c(cc3[C@H](O)[C@H]3COC(=O)[C@H]23)OCO4)cc(OC)c1OC [PODOFILOX] | 20.5 | 4.8 | 0.002 | 4.8 | 8.5 | – | –

Reference: ChEMBL document CHEMBL1155104, “Gallic acid-based indanone derivatives as anticancer agents” (Bioorg Med Chem Lett, 2008)
